Source: ChEMBL document CHEMBL1130231, “Betidamino acid scan of the GnRH antagonist acyline” (J Med Chem, 1997)
Activity calls are given as the source filed them. No cut-off for these calls is given here.

Tests used:
Format in all cases: functional, organism-based
Rattus norvegicus [1] = assay: Ratio of ovulated rats to total number of rats determined in a anti-ovulatory assay by administering 250 microg of compound; 3/3
Rattus norvegicus [2] = assay: Ratio of ovulated rats to total number of rats determined in a anti-ovulatory assay by administering 2.5 microg of compound; 0/8
Rattus norvegicus [3] = assay: Ratio of ovulated rats to total number of rats determined in a anti-ovulatory assay by administering 0.5 microg of compound; 5/8
Rattus norvegicus [4] = assay: Ratio of ovulated rats to total number of rats determined in a anti-ovulatory assay by administering 1 microg of compound; 0/8
Rattus norvegicus [5] = assay: Ratio of ovulated rats to total number of rats determined in a anti-ovulatory assay by administering 10 microg of compound; 4/8
Rattus norvegicus [6] = assay: Ratio of ovulated rats to total number of rats determined in a anti-ovulatory assay by administering 2.5 microg of compound; 7/8
Rattus norvegicus [7] = assay: Ratio of ovulated rats to total number of rats determined in a anti-ovulatory assay by administering 0.5 microg of compound; 9/11
Rattus norvegicus [8] = assay: Ratio of ovulated rats to total number of rats determined in a anti-ovulatory assay by administering 1 microg of compound; 6/17
Rattus norvegicus [9] = assay: Ratio of ovulated rats to total number of rats determined in a anti-ovulatory assay by administering 250 microg of compound; 2/2
Rattus norvegicus [10] = assay: Ratio of ovulated rats to total number of rats determined in a anti-ovulatory assay by administering 2.5 microg of compound; 0/5
Rattus norvegicus [11] = assay: Ratio of ovulated rats to total number of rats determined in a anti-ovulatory assay by administering 1 microg of compound; 6/14
Rattus norvegicus [12] = assay: Ratio of ovulated rats to total number of rats determined in a anti-ovulatory assay by administering 1 ug of compound; 3/3
Rattus norvegicus [13] = assay: Ratio of ovulated rats to total number of rats determined in a anti-ovulatory assay by administering 2.5 microg of compound; 0/7
Rattus norvegicus [14] = assay: Ratio of ovulated rats to total number of rats determined in a anti-ovulatory assay by administering 2.5 microg of compound; 5/8
Rattus norvegicus [15] = assay: Ratio of ovulated rats to total number of rats determined in a anti-ovulatory assay by administering 5 microg of compound; 4/8
Rattus norvegicus [16] = assay: Ratio of ovulated rats to total number of rats determined in a anti-ovulatory assay by administering 25 microg of compound; 0/8
Rattus norvegicus [17] = assay: Ratio of ovulated rats to total number of rats determined in a anti-ovulatory assay by administering 10 microg of compound; 7/8
Rattus norvegicus [18] = assay: Ratio of ovulated rats to total number of rats determined in a anti-ovulatory assay by administering 1.0 microg of compound; 3/4
Rattus norvegicus [19] = assay: Ratio of ovulated rats to total number of rats determined in a anti-ovulatory assay by administering 5 microg of compound; 0/4
Rattus norvegicus [20] = assay: Ratio of ovulated rats to total number of rats determined in a anti-ovulatory assay by administering 2.5 microg of compound; 1/7
Rattus norvegicus [21] = assay: Ratio of ovulated rats to total number of rats determined in a anti-ovulatory assay by administering 25 microg of compound; 0/3
Rattus norvegicus [22] = assay: Ratio of ovulated rats to total number of rats determined in a anti-ovulatory assay by administering 10 microg of compound; 2/6
Rattus norvegicus [23] = assay: Ratio of ovulated rats to total number of rats determined in a anti-ovulatory assay by administering 2.5 microg of compound; 5/5
Rattus norvegicus [24] = assay: Ratio of ovulated rats to total number of rats determined in a anti-ovulatory assay by administering 5 microg of compound; 0/8
Rattus norvegicus [25] = assay: Ratio of ovulated rats to total number of rats determined in a anti-ovulatory assay by administering 250 microg of compound; 8/9
Rattus norvegicus [26] = assay: Ratio of ovulated rats to total number of rats determined in a anti-ovulatory assay by administering 1 microg of compound; 3/8
Rattus norvegicus [27] = assay: Ratio of ovulated rats to total number of rats determined in a anti-ovulatory assay by administering 1 microg of compound; 3/3
Rattus norvegicus [28] = assay: Ratio of ovulated rats to total number of rats determined in a anti-ovulatory assay by administering 2.5 microg of compound; 0/4

SMILES: CC(=O)Nc1ccc(C[C@H](NC(=O)[C@H](CO)NC(=O)[C@@H](Cc2cccnc2)NC(=O)[C@H](NC(=O)c2cnccn2)NC(=O)[C@@H](Cc2ccc3ccccc3c2)NC(C)=O)C(=O)N[C@H](Cc2ccc(NC(C)=O)cc2)C(=O)N[C@@H](CC(C)C)C(=O)N[C@@H](CCCCNC(C)C)C(=O)N2CCC[C@@H]2C(=O)N[C@H](C)C(N)=O)cc1 (single isomer, unassigned)
- ov. rat/total (Rattus norvegicus [1]): inactive

SMILES: CC(=O)Nc1ccc(C[C@H](NC(=O)[C@H](CO)NC(=O)[C@@H](Cc2cccnc2)NC(=O)[C@@H](Cc2ccc(Cl)cc2)NC(=O)[C@@H](Cc2ccc3ccccc3c2)NC(C)=O)C(=O)N[C@H](Cc2ccc(NC(C)=O)cc2)C(=O)N[C@@H](CC(C)C)C(=O)N[C@H](C(=O)N2CCC[C@@H]2C(=O)N[C@H](C)C(N)=O)N(C)C(=O)CCNC(C)C)cc1 (single isomer, unassigned)
- ov. rat/total (Rattus norvegicus [2]): Active
- ov. rat/total (Rattus norvegicus [3]): Partially active
- ov. rat/total (Rattus norvegicus [4]): Active

SMILES: CC(=O)Nc1ccc(C[C@H](NC(=O)[C@H](CO)NC(=O)[C@@H](Cc2cccnc2)NC(=O)[C@@H](Cc2ccc(Cl)cc2)NC(=O)[C@@H](Cc2ccc3ccccc3c2)NC(C)=O)C(=O)N[C@H](Cc2ccc(NC(C)=O)cc2)C(=O)N[C@@H](CC(C)C)C(=O)N[C@@H](C(=O)N2CCC[C@@H]2C(=O)N[C@H](C)C(N)=O)N(C)C(=O)CCNC(C)C)cc1 (single isomer, unassigned)
- ov. rat/total (Rattus norvegicus [5]): Partially active
- ov. rat/total (Rattus norvegicus [6]): inactive

SMILES: CC(=O)Nc1ccc(C[C@H](NC(=O)[C@H](CO)NC(=O)[C@@H](Cc2cccnc2)NC(=O)[C@@H](Cc2ccc(Cl)cc2)NC(=O)[C@@H](Cc2ccc3ccccc3c2)NC(C)=O)C(=O)N[C@H](Cc2ccc(NC(C)=O)cc2)C(=O)N[C@@H](CC(C)C)C(=O)N[C@@H](CCCCNC(C)C)C(=O)N2CCC[C@@H]2C(=O)N[C@H](NC=O)C(N)=O)cc1 (single isomer, unassigned)
- ov. rat/total (Rattus norvegicus [7]): inactive
- ov. rat/total (Rattus norvegicus [8]): Partially active

SMILES: CC(=O)Nc1ccc(C[C@H](NC(=O)[C@H](CO)NC(=O)[C@@H](Cc2cccnc2)NC(=O)[C@@H](NC(=O)c2cnccn2)NC(=O)[C@@H](Cc2ccc3ccccc3c2)NC(C)=O)C(=O)N[C@H](Cc2ccc(NC(C)=O)cc2)C(=O)N[C@@H](CC(C)C)C(=O)N[C@@H](CCCCNC(C)C)C(=O)N2CCC[C@@H]2C(=O)N[C@H](C)C(N)=O)cc1
- ov. rat/total (Rattus norvegicus [9]): inactive

SMILES: CC(=O)Nc1ccc(C[C@H](NC(=O)[C@H](CO)NC(=O)[C@@H](NC(=O)c2cccnc2)NC(=O)[C@@H](Cc2ccc(Cl)cc2)NC(=O)[C@@H](Cc2ccc3ccccc3c2)NC(C)=O)C(=O)N[C@H](Cc2ccc(NC(C)=O)cc2)C(=O)N[C@@H](CC(C)C)C(=O)N[C@@H](CCCCNC(C)C)C(=O)N2CCC[C@@H]2C(=O)N[C@H](C)C(N)=O)cc1
- ov. rat/total (Rattus norvegicus [10]): Active
- ov. rat/total (Rattus norvegicus [11]): Partially active

SMILES: CC(=O)Nc1ccc(C[C@H](NC(=O)[C@H](CO)NC(=O)[C@H](NC(=O)c2cccnc2)NC(=O)[C@@H](Cc2ccc(Cl)cc2)NC(=O)[C@@H](Cc2ccc3ccccc3c2)NC(C)=O)C(=O)N[C@H](Cc2ccc(NC(C)=O)cc2)C(=O)N[C@@H](CC(C)C)C(=O)N[C@@H](CCCCNC(C)C)C(=O)N2CCC[C@@H]2C(=O)N[C@H](C)C(N)=O)cc1
- ov. rat/total (Rattus norvegicus [12]): inactive
- ov. rat/total (Rattus norvegicus [13]): Active

SMILES: CC(=O)Nc1ccc(C[C@H](NC(=O)[C@@H](NC(=O)[C@@H](Cc2cccnc2)NC(=O)[C@@H](Cc2ccc(Cl)cc2)NC(=O)[C@@H](Cc2ccc3ccccc3c2)NC(C)=O)N(C)C=O)C(=O)N[C@H](Cc2ccc(NC(C)=O)cc2)C(=O)N[C@@H](CC(C)C)C(=O)N[C@@H](CCCCNC(C)C)C(=O)N2CCC[C@@H]2C(=O)N[C@H](C)C(N)=O)cc1 (single isomer, unassigned)
- ov. rat/total (Rattus norvegicus [14]): Partially active

SMILES: CC(=O)Nc1ccc(C[C@H](NC(=O)[C@H](NC(=O)CO)NC(=O)[C@@H](Cc2cccnc2)NC(=O)[C@@H](Cc2ccc(Cl)cc2)NC(=O)[C@@H](Cc2ccc3ccccc3c2)NC(C)=O)C(=O)N[C@H](Cc2ccc(NC(C)=O)cc2)C(=O)N[C@@H](CC(C)C)C(=O)N[C@@H](CCCCNC(C)C)C(=O)N2CCC[C@@H]2C(=O)N[C@H](C)C(N)=O)cc1 (single isomer, unassigned)
- ov. rat/total (Rattus norvegicus [15]): Partially active

SMILES: CC(=O)Nc1ccc(C[C@H](NC(=O)[C@H](CO)NC(=O)[C@@H](Cc2cccnc2)NC(=O)[C@@H](Cc2ccc(Cl)cc2)NC(=O)[C@H](NC(C)=O)N(C)C(=O)c2ccc3ccccc3c2)C(=O)N[C@H](Cc2ccc(NC(C)=O)cc2)C(=O)N[C@@H](CC(C)C)C(=O)N[C@@H](CCCCNC(C)C)C(=O)N2CCC[C@@H]2C(=O)N[C@H](C)C(N)=O)cc1
- ov. rat/total (Rattus norvegicus [16]): Active
- ov. rat/total (Rattus norvegicus [17]): inactive

SMILES: CC(=O)Nc1ccc(C[C@H](NC(=O)[C@H](CO)NC(=O)[C@@H](Cc2cccnc2)NC(=O)[C@@H](Cc2ccc(Cl)cc2)NC(=O)[C@@H](Cc2ccc3ccccc3c2)NC(C)=O)C(=O)N[C@H](Cc2ccc(NC(C)=O)cc2)C(=O)N[C@@H](CC(C)C)C(=O)NC(NC(=O)CN=C(N)N)C(=O)N2CCC[C@@H]2C(=O)N[C@H](C)C(N)=O)cc1 (some centres undefined)
- ov. rat/total (Rattus norvegicus [18]): inactive
- ov. rat/total (Rattus norvegicus [19]): Active
- ov. rat/total (Rattus norvegicus [20]): Active

SMILES: CC(=O)Nc1ccc(C[C@H](NC(=O)[C@H](CO)NC(=O)[C@@H](Cc2cccnc2)NC(=O)[C@@H](Cc2ccc(Cl)cc2)NC(=O)[C@H](Cc2ccc3ccccc3c2)NC(C)=O)C(=O)N[C@H](Cc2ccc(NC(C)=O)cc2)C(=O)N[C@@H](CC(C)C)C(=O)N[C@@H](CCCCNC(C)C)C(=O)N2CCC[C@@H]2C(=O)N[C@H](C)C(N)=O)cc1
- ov. rat/total (Rattus norvegicus [21]): Active
- ov. rat/total (Rattus norvegicus [22]): Partially active

SMILES: CC(=O)Nc1ccc(C[C@H](NC(=O)[C@H](CO)NC(=O)[C@@H](Cc2cccnc2)NC(=O)[C@@H](Cc2ccc(Cl)cc2)NC(=O)[C@H](NC(C)=O)NC(=O)c2ccc3ccccc3c2)C(=O)N[C@H](Cc2ccc(NC(C)=O)cc2)C(=O)N[C@@H](CC(C)C)C(=O)N[C@@H](CCCCNC(C)C)C(=O)N2CCC[C@@H]2C(=O)N[C@H](C)C(N)=O)cc1
- ov. rat/total (Rattus norvegicus [23]): inactive
- ov. rat/total (Rattus norvegicus [24]): Active

SMILES: CC(=O)Nc1ccc(C[C@H](NC(=O)[C@H](CO)NC(=O)[C@@H](Cc2cccnc2)NC(=O)[C@@H](NC(=O)c2c[nH]nc2N)NC(=O)[C@@H](Cc2ccc3ccccc3c2)NC(C)=O)C(=O)N[C@H](Cc2ccc(NC(C)=O)cc2)C(=O)N[C@@H](CC(C)C)C(=O)N[C@@H](CCCCNC(C)C)C(=O)N2CCC[C@@H]2C(=O)N[C@H](C)C(N)=O)cc1 (single isomer, unassigned)
- ov. rat/total (Rattus norvegicus [25]): inactive

SMILES: CC(=O)Nc1ccc(C[C@H](NC(=O)[C@H](CO)NC(=O)[C@@H](Cc2cccnc2)NC(=O)[C@@H](Cc2ccc(Cl)cc2)NC(=O)[C@@H](Cc2ccc3ccccc3c2)NC(C)=O)C(=O)N[C@H](Cc2ccc(NC(C)=O)cc2)C(=O)N[C@@H](CC(C)C)C(=O)N[C@@H](CCCCNC(C)C)C(=O)N2CCC[C@@H]2C(=O)N[C@H](N)C(N)=O)cc1
- ov. rat/total (Rattus norvegicus [2]): Active
- ov. rat/total (Rattus norvegicus [26]): Partially active

SMILES: CC(=O)Nc1ccc(C[C@H](NC(=O)[C@H](CO)NC(=O)[C@@H](Cc2cccnc2)NC(=O)[C@@H](Cc2ccc(Cl)cc2)NC(=O)[C@@H](Cc2ccc3ccccc3c2)NC(C)=O)C(=O)N[C@H](Cc2ccc(NC(C)=O)cc2)C(=O)N[C@@H](CC(C)C)C(=O)N[C@@H](CCCCNC(C)C)C(=O)N2CCC[C@@H]2C(=O)N[C@@H](NC=O)C(N)=O)cc1 (single isomer, unassigned)
- ov. rat/total (Rattus norvegicus [27]): inactive
- ov. rat/total (Rattus norvegicus [28]): Active
